The target of experiment [1] is T1, Short transient receptor potential channel 5 (Homo sapiens, UniProt Q9UL62).
T1 sequence (Q9UL62 whole entry): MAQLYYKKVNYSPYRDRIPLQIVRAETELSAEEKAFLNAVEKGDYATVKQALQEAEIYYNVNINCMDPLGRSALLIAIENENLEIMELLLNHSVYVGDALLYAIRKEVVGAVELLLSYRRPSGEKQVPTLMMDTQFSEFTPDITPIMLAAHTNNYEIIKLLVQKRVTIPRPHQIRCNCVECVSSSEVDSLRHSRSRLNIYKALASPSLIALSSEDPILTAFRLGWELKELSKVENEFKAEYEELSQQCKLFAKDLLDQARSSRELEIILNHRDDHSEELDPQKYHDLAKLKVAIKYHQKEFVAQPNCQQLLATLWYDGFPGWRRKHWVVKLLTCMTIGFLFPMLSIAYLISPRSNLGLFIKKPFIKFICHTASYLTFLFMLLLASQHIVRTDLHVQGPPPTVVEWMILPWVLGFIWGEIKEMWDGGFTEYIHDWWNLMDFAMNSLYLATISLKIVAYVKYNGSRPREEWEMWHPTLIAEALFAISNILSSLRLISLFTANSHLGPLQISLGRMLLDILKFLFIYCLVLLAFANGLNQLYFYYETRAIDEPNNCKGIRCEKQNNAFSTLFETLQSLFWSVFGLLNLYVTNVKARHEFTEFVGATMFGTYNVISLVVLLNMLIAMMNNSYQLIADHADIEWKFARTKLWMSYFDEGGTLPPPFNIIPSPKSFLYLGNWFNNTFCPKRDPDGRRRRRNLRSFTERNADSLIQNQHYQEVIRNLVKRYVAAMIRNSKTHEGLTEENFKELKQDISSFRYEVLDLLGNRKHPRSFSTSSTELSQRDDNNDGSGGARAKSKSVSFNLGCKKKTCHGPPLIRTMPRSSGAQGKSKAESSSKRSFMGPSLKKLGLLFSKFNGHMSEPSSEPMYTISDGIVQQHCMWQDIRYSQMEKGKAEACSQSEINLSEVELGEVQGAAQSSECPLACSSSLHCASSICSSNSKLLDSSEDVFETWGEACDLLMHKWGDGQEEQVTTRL
Nature of the experiment: Inhibition of human TRPC5 channel expressed in HEK293 cells assessed as inhibition of EA-evoked Calcium influx by measuring reduction in intracellular Ca2+ level and measured upto 360 sec by Fluo-4/AM dye based FLIPR assay. It is filed as cell-based.

In experiment [2] the target is T2, Short transient receptor potential channel 4 (Homo sapiens, UniProt Q9UBN4).
T2 sequence (Q9UBN4 whole entry): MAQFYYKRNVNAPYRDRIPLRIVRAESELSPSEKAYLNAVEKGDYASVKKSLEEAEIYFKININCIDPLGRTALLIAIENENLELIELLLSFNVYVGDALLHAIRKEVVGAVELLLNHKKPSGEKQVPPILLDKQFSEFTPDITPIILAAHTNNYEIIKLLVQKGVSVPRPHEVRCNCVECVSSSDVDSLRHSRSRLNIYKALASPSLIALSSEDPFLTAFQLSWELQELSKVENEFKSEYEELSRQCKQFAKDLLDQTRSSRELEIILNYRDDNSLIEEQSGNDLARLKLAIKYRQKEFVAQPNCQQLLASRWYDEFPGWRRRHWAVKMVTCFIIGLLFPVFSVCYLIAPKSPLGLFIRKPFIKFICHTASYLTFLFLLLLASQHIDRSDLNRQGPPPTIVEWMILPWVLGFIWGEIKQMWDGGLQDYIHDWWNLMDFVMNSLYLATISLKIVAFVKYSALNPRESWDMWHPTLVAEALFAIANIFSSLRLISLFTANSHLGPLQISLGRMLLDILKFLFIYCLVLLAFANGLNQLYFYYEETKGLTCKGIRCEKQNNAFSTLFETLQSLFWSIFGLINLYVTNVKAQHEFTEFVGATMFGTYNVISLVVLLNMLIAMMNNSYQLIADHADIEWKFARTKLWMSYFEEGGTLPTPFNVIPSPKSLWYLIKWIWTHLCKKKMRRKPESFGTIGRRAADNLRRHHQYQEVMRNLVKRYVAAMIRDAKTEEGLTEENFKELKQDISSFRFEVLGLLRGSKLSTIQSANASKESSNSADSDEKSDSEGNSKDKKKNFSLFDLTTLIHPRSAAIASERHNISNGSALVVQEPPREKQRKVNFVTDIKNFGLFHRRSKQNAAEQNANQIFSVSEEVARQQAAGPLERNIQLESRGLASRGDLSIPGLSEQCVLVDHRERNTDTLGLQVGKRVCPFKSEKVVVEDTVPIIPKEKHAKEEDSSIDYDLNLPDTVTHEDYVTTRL
Briefly: Inhibition of human TRPC4 channel expressed in HEK293 cells assessed as inhibition of EA-evoked Calcium influx by measuring reduction in intracellular Ca2+ level and measured upto 360 sec by Fluo-4/AM dye based FLIPR assay. It is filed as cell-based.

Experiment [3] deals with HaCaT. Nature of the experiment: Inhibition of IL-17 induced cell proliferation in human HaCaT cells assessed as decrease in BrdU positive (BrdU+) cells at 10 uM and measured after 24 hrs by BrdU incorporation assay. It is filed as functional, cell-based. On the technique in general: Incorporation of labelled thymidine or its analogues reports DNA synthesis.
Experiment [4] relates to MPC-5. Nature of the experiment: Protective effect against protamine sulfate induced cytoskeleton rearrangement in mouse MPC-5 cell assessed as reduction in aggregated stress fibers at 10 uM pretreatment followed by PS stimulation and measured after 2 hrs by phalloidin and Hoechst 33342 staining based fluorescence analysis. It counts as functional.
The subject of experiment [5] is HaCaT. Nature of the experiment: Inhibition of IL-17 induced inflammation in human HaCaT cells assessed as reduction in IL-8 mRNA level at 0.3 to 3 uM by qRT-PCR analysis. It is filed as functional, cell-based. The following applies: dose 0.3-3 µM. A general note: Real-time PCR tracks product formation cycle by cycle.
In experiment [6] the test system is HaCaT. Nature of the experiment: Inhibition of IL-17 induced inflammation in human HaCaT cells assessed as reduction in IL-6 mRNA level at 0.3 to 3 uM by qRT-PCR analysis. It is filed as functional, cell-based. The following applies: dose 0.3-3 µM.
In experiment [7] the test system is HaCaT. Nature of the experiment: Inhibition of IL-17 induced cell proliferation in human HaCaT cells assessed as decrease in BrdU positive (BrdU+) cells at 0.3 to 3 uM and measured after 24 hrs by BrdU incorporation assay. The following applies: dose 0.3-3 µM. It is filed as functional, cell-based.
Experiment [8] relates to MPC-5. Briefly: Protective effect against protamine sulfate induced cytoskeleton rearrangement in mouse MPC-5 cell assessed as reduction in aggregated stress fibers at 1 to 3 uM pretreatment followed by PS stimulation and measured after 2 hrs by phalloidin and Hoechst 33342 staining based fluorescence analysis. It counts as functional. The following applies: dose 1-3 µM.

For experiment [9], the system named is HaCaT. Briefly: Inhibition of IL-17 induced inflammation in human HaCaT cells assessed as reduction in CCL-20 mRNA level at 0.3 to 3 uM by qRT-PCR analysis. The following applies: dose 0.3-3 µM. It counts as functional, cell-based.

Each structure is given as a SMILES string. Calls of active or inactive are those of the source. The rule behind the calls is not given here.

For `CCc1ccc2c(c1)nc(N1CCC3(CCCO3)CC1)n2Cc1ccccc1`, the IC50 (in general, the concentration that inhibits the measured activity by half) in experiment [1] is more than 10000 nM.

For the compound `CCc1ccc2c(c1)nc(NCCN1CCOCC1)n2Cc1ccccc1`, the IC50 in experiment [1] turned out to be 2640 nM.

Turning to `Cc1ccc2c(c1)nc(NCc1ccco1)n2Cc1ccccc1`, in experiment [1], the IC50 worked out at 670 nM.

Turning to `CCc1ccc2c(c1)nc(N1CCN(C)CC1)n2Cc1ccccc1`, the IC50 in [1] was more than 10000 nM.

Regarding `CCc1ccc2c(c1)nc(NCCc1ccco1)n2Cc1ccccc1`, the IC50 in experiment [1] is 1020 nM.

As for `CCCc1ccc2c(c1)nc(NCc1ccco1)n2Cc1ccccc1`, the IC50 in [1] amounted to 1340 nM.

With `CCc1ccc2c(c1)nc(NCC1CCCO1)n2Cc1ccccc1` (stereo not given), in experiment [1], the IC50 amounted to 1820 nM.

As to `CCc1ccc2c(c1)nc(NCc1ccco1)n2Cc1ccc(C)cc1`, in [1], the IC50 amounted to 4630 nM.

`CCc1ccc2c(c1)nc(N1CCC(C)CC1)n2Cc1ccccc1`: in experiment [1], the IC50 is more than 10000 nM.

With `CCc1ccc2c(c1)nc(NCc1ccco1)n2Cc1ccc(OC(F)(F)F)cc1`, the IC50 in experiment [1] was found to be 920 nM.

For `CCc1ccc2c(c1)nc(N1CCOCC1)n2Cc1ccccc1`, the IC50 in [1] is more than 10000 nM.

As to `c1ccc(Cn2c(NCc3ccco3)nc3cc(C4CC4)ccc32)cc1`, in experiment [1], the IC50 worked out at 820 nM.

`CCc1ccc2c(c1)nc(NCc1ccco1)n2Cc1ccccc1C(F)(F)F`: the IC50 in experiment [1] was more than 10000 nM.

Turning to `CCc1ccc2c(c1)nc(NCC1CCOC1)n2Cc1ccccc1` (stereo not given), in experiment [1], the IC50 amounted to 2270 nM.

Take `CCc1ccc2c(c1)nc(N1CC3CCC(C1)O3)n2Cc1ccccc1`: the IC50 in experiment [1] is more than 10000 nM.

Regarding `c1ccc(Cn2c(NCc3ccco3)nc3ccccc32)cc1`, the results for the IC50 in experiment [2] and in [1] were 77200 nM and 65000 nM, respectively. Besides, the inhibition entry in experiment [3] was “Active”. Besides, the outcome in experiment [4] was Active.

As to `CCc1ccc2c(c1)nc(NCCN1CCCCC1)n2Cc1ccccc1`, the IC50 in [1] stood at 3350 nM.

In the case of `CCc1ccc2c(c1)nc(NCc1ccc(Cl)o1)n2Cc1ccccc1`, in experiment [1], the IC50 was 2210 nM.

Regarding `CCc1ccc2c(c1)nc(NCc1ccco1)n2Cc1ccc(C(F)(F)F)cc1`, in experiment [1], the IC50 was found to be 1350 nM.

`CCc1ccc2c(c1)nc(NCc1ccc(C)o1)n2Cc1ccccc1`: in [1], the IC50 stood at 2930 nM.

As for `CC(C)c1ccc2c(c1)nc(NCc1ccco1)n2Cc1ccccc1`, the IC50 in experiment [1] was 570 nM.

On to `Cc1ccc2nc(NCc3ccco3)n(Cc3ccccc3)c2c1`, for which the concentration for half-maximal inhibition (IC50) in [1] was more than 10000 nM.

For `CCc1ccc2c(c1)nc(NCc1cccs1)n2Cc1ccccc1`, in experiment [1], the IC50 is 2410 nM.

As to `CCc1ccc2nc(NCc3ccco3)n(Cc3ccccc3)c2c1`, the IC50 in experiment [1] was more than 10000 nM.

For `CCc1ccc2c(c1)nc(NCc1ccco1)n2Cc1ccc(OC)cc1`, the IC50 in experiment [1] came to 2210 nM.

`Oc1ccc2c(c1)nc(NCc1ccco1)n2Cc1ccccc1`: in [1], the IC50 is more than 10000 nM.

As to `CCc1ccc2c(c1)nc(NCc1ccc(C#N)o1)n2Cc1ccccc1`, the IC50 in [1] is more than 10000 nM.

As for `CCc1ccc2c(c1)nc(NCc1ccco1)n2Cc1ccc(F)cc1`, the IC50 in [1] came out at 960 nM.

With `CCc1ccc2c(c1)nc(N1CC3(COC3)C1)n2Cc1ccccc1`, the IC50 in [1] is more than 10000 nM.

For `C#Cc1ccc2c(c1)nc(NCc1ccco1)n2Cc1ccccc1`, the IC50 in experiment [1] was more than 10000 nM.

As for `CCc1ccc2c(c1)nc(NCc1ccco1)n2Cc1cccc(C(F)(F)F)c1`, the IC50 in experiment [1] was found to be 2240 nM.

For the compound `C=Cc1ccc2c(c1)nc(NCc1ccco1)n2Cc1ccccc1`, the IC50 in experiment [1] is more than 10000 nM.

Turning to `CCc1ccc2c(c1)nc(NCc1ccco1)n2Cc1ccccc1`, the IC50 in [2] was found to be 2060 nM; in [1], 540 nM. The inhibition result in experiment [5], in [6], in experiment [7] and in experiment [9] was “Active” each time. In addition, the outcome in experiment [8] was Active.

For `CCc1ccc(Cn2c(NCc3ccco3)nc3cc(CC)ccc32)cc1`, the half-inhibitory concentration (IC50) in experiment [1] is 2300 nM.

Regarding `CCc1ccc2c(c1)nc(NCc1ccccn1)n2Cc1ccccc1`, the IC50 in [1] was determined as 3130 nM.

`CCc1ccc2c(c1)nc(NCCc1ccncc1)n2Cc1ccccc1`: in experiment [1], the IC50 is 2950 nM.

These data come from ChEMBL document CHEMBL5126584, “Synthesis of AC1903 analogs as potent transient receptor potential canonical channel 4/5 inhibitors and biological evaluation” (Bioorg Med Chem, 2022).
